Source: patent US20220041623A1, “INDOLE MACROCYCLIC DERIVATIVE, PREPARATION METHOD THEREOF AND APPLICATION THEREOF IN MEDICINE” (JIANGSU HENGRUI MEDICINE CO., LTD., priority 2018, published 2022)
Read-outs that look alike come from different tables or passages of the source.

Experiments:
MCL-1 protein = target: T1, MCL-1 protein (Homo sapiens, UniProt Q07820); assay: MCL-1 protein binding experiment (HTRF, MCL-1/Bim); conditions: for inhibition at up to 10 µM: HTRF MCL-1/Bim binding, initial concentration 10 μM, read-out: Maximum inhibition rate (%); for Ki: HTRF, 0.1 nM His-MCL-1, 2.5 nM bio-Bim, room temperature
T1 construct: Bim peptide bought from R&D, 3526/1 NA
T1 sequence (Q07820 171-327): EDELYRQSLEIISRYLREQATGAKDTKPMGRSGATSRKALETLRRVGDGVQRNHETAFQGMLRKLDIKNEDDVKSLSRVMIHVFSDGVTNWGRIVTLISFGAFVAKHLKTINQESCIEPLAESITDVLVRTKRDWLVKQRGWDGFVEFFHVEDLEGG
Method: The following method was used to determine the binding ability of the compound of the present invention to MCL-1 protein. The experimental method is briefly described as follows.
MCL-1 inhibitors can bind to MCL-1 protein to prevent the binding of MCL-1 to Bim protein. The experiment evaluates the binding ability of MCL-1 inhibitor to MCL-1 protein by detecting the binding of MCL-1 to Bim protein through HTRF method, and the activity of the compound was evaluated according to the Ki value.
The mixture was incubated at room temperature for 2 hours, followed by the detection of fluorescence signals at 620 nm and 665 nm by PHERAstar. The data was processed by GraphPad software.

MV-4-11 cells = assay: Cell proliferation experiment (intracellular ATP, CellTiter-Glo), MV-4-11; format: cell-based; conditions: Homo sapiens, MV4-11, 72 h, read-out: MV-4-11 IC50
Method: (§1) The following method evaluates the inhibition effect of the compound of the present invention on the proliferation of AMO-1 and MV-4-11 cells according to IC50 value by detecting intracellular ATP content. The experimental method is briefly described as follows.
(§2) AMO-1 cells were cultured in RPMI1640 medium (containing 20% FBS), and MV-4-11 cells were cultured in IMDM medium (containing 10% FBS). The cells were passaged for 2 to 3 times a week, with a passage ratio of 1:4 or 1:6. During the passage, the cells were transferred to a centrifuge tube and centrifuged at 1200 rpm for 3 minutes. The supernatant was discarded, and fresh medium was added to resuspend the cells. […] 100 μL of complete medium was added to the periphery of the 96-well plate. The plate was incubated in an incubator for 24 hours (37° C., 5% CO2).
(§3) The test sample was diluted to 20 mM with DMSO, and then diluted to 9 concentrations by diluting in 4-fold gradient. Blank and control wells were set. 5 μL of the test compound solution formulated as gradient concentration was added to 95 μL of fresh medium. 10 µL of the above drug-containing medium solution was added to the plate. The plate was incubated in an incubator for 3 days (37° C., 5% CO2). In the 96-well cell culture plate, 50 μL of CellTiter-Glo reagent was added to each well, and the plate was left to stand in the dark at room temperature for 5 to 10 minutes. The chemiluminescence signal value was read in PHERAstar, and the data was processed by GraphPad software.

AMO-1 cells = assay: Cell proliferation experiment (intracellular ATP, CellTiter-Glo), AMO-1; format: cell-based; conditions: Homo sapiens, AMO1, 72 h, read-out: AMO-1 IC50
Method: as §1
1. AMO-1, human bone marrow plasmacytoma (Nanjing Cobioer Biosciences Co., Ltd., CBP60242)
as §2, §3

2C19 = target: T2, 2C19 (Homo sapiens, UniProt P33261); assay: Inhibition of human liver microsomal P450 subenzyme CYP2C19; format: in vitro ADME; conditions: human liver microsomes, (S)-mephenytoin metabolic site, 30 minutes incubation
T2 construct: Human liver microsomes (Corning Gentest, Cat No. 452161, Lot No. 6123001, 33 Donors); tissue Corning Gentest 452161; host or cells: human liver microsomes, pool of 33 donors
T2 sequence (P33261 whole entry): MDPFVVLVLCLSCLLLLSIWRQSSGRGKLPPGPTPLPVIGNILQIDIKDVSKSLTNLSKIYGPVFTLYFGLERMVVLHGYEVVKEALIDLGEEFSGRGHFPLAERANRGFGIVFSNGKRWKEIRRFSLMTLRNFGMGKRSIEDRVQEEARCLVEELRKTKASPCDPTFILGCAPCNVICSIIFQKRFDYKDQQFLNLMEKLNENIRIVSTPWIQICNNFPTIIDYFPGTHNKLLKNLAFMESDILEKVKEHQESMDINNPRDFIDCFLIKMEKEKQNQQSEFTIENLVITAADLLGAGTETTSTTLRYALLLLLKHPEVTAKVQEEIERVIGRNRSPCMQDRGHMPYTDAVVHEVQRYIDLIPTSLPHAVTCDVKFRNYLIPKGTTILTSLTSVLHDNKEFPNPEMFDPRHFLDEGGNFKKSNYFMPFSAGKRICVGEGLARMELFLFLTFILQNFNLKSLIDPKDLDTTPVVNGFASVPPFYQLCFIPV
Method: (§4) The inhibition effect of the compound of the present invention on the enzymatic activity of human liver microsomal P450 subenzymes CYP2C9 and 2C19 was determined by the following experimental method.
(§5) 6. CYP probe substrate for 2C9 (Diclofenac/4 μM, SIGMA, Cat No. D6899-10G) and CYP probe substrate for 2C19 ((S)-Mephenytoin/20 μM, J&K Scientific Ltd., CatNo. 303768); positive control inhibitor for 2C9 ([…], SIGMA, Cat No. 526-08-9) and positive control inhibitor for 2C19 (Ticlopidine, SIGMA, Cat No. T6654-1G).
(§6) 100 mM PBS buffer solution was formulated. 2.5 mg/mL microsome solution, 15 mM MgCl2 solution and 5 mM NADPH solution were formulated with the buffer solution. 30 mM stock solution was diluted with DMSO into a serial solution I with concentrations of 10 mM, 3 mM, 1 mM, 0.3 mM, 0.1 mM, 0.03 mM, […] and 0 mM. The above serial solution I was diluted for 200 times with the phosphate buffer solution (PBS) to obtain a serial test solution II (150, 50, 15, 5, 1.5, 0.15, 0.015, 0 μM). […]
(§7) The data were calculated by Graphpad Prism to obtain the IC50 values of the compound for the diclofenac metabolic site of CYP2C9 and (S)-mephenytoin metabolic site of 2C19. which are shown in Table 3.

CYP2C9 = target: T3, CYP2C9 (Homo sapiens, UniProt P11712); assay: Inhibition of human liver microsomal P450 subenzyme CYP2C9; format: in vitro ADME; conditions: human liver microsomes, diclofenac metabolic site, 30 minutes incubation; read-out: 2C9 IC50
T3 construct: Human liver microsomes (Corning Gentest, Cat No. 452161, Lot No. 6123001, 33 Donors); tissue Corning Gentest 452161; host or cells: human liver microsomes, pool of 33 donors
T3 sequence (P11712 whole entry): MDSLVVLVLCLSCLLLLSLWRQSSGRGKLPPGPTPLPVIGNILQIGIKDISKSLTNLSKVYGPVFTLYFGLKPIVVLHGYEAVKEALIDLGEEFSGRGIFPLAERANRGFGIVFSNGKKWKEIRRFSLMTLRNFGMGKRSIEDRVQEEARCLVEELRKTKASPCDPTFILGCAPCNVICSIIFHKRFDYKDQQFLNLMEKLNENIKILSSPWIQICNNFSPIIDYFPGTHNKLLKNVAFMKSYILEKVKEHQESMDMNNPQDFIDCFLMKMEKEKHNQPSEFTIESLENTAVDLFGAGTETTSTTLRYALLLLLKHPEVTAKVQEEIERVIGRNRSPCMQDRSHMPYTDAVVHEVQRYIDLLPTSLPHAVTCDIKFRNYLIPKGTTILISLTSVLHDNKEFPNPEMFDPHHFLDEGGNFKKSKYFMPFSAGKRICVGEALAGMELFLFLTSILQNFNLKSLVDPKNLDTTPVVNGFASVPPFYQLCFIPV
Method: as §4, §5, §6, §7

[1] = MV-4-11 cells, incubated 3 days, CellTiter-Glo
[2] = AMO-1 cells, incubated 3 days, CellTiter-Glo

inhibition at up to 10 µM (MCL-1 protein) | Ki (MCL-1 protein) | IC50 (MV-4-11 cells; [1]) | IC50 (2C19) | IC50 (CYP2C9) | IC50 (MV-4-11 cells) | SMILES | IC50 (AMO-1 cells; [2]) | IC50 (AMO-1 cells)
99% | 0.74 nM | 71 nM |  |  |  | Cc1c(C(=O)O)n2c3ccc(Cl)c(c13)-c1c(nn(C)c1C)CSCc1cc(n(C)n1)CSc1cc3c(c(c1)OCCC2)CCCC3 (single isomer, unassigned) [Example 7-1, (Ra)-17-Chloro-5,13,14,22-tetramethyl-28-oxa-2,9-dithia-5,6,12,13,24-pentaazaheptacyclo[27.7.1.1^4,7.0^11,15.0^16,21.0^20,24.0^30,35]octatriaconta-1(37),4(38),6,11,14,16,18,20,22,29,35-undecaene-23-carboxylic acid] | 70 nM | 
100% | 0.24 nM | 36 nM | > 30000 nM | > 30000 nM |  | Cc1c(C(=O)O)n2c3ccc(Cl)c(c13)-c1c(nn(C)c1C)CSCc1cc(n(C)n1)CSc1cc(cc3c1CCC3)OCCC2 (single isomer, unassigned) [Example 12-1, (Ra)-17-Chloro-5,13,14,22-tetramethyl-28-oxa-2,9-dithia-5,6,12,13,24-pentaazaheptacyclo[27.6.1.1^4,7.0^11,15.0^16,21.0^20,24.0^30,35]heptatriaconta-1(36),4(37),6,11,14,16,18,20,22,29,31(35)-undecaene-23-carboxylic acid] | 34 nM | 
100% | 0.16 nM | 26 nM | > 30000 nM | 16600 nM |  | Cc1c(C(=O)O)n2c3ccc(Cl)c(c13)-c1c(nn(C)c1C)CSCc1cc(n(C)n1)CSc1cc3c(c(c1)OCCC2)CCC3 (single isomer, unassigned) [Example 13-1, (Ra)-17-Chloro-5,13,14,22-tetramethyl-28-oxa-2,9-dithia-5,6,12,13,24-pentaazaheptacyclo[27.6.1.1^4,7.0^11,15.0^16,21.0^20,24.0^30,34]heptatriaconta-1(36),4(37),6,11,14,16,18,20,22,29,34-undecaene-23-carboxylic acid] | 26 nM | 
100% | 0.15 nM |  |  |  | 39 nM | Cc1c(C(=O)O)n2c3ccc(Cl)c(c13)-c1c(nn(C)c1C)CSCc1cc(n(C)n1)CCc1cc(c3ccccc3c1)OCCC2 (single isomer, unassigned) [Example 4-1, (Ra)-17-Chloro-5,13,14,22-tetramethyl-28-oxa-9-thia-5,6,12,13,24-pentaazaheptacyclo[27.7.1.1^4,7.0^11,15.0^16,21.0^20,24.0^30,35]octatriaconta-1(37),4(38),6,11,14,16,18,20,22,29,31,33,35-tridecaene-23-carboxylic acid] |  | 37 nM
